Data from patent publication US9708314B2, “Heterocyclic amide compound” (NISSAN CHEMICAL INDUSTRIES, LTD., priority 2013, dated 2017).

Assays:
Assay type in all cases: in vivo
[1] = system: Galium spurium; assay: Test Example 4: herbicidal effect by application to foliage (diluvial soil, plastic box); details: application to foliage; for herbicidal effect, Q (Galium spurium): 320 g/ha; for Q: herbicidal effect on Galium spurium: application herbicide amount 320 g/ha
Summary of the method: (§1)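 Plants were grown in sterilized diluvial soil in a greenhouse at 25-30° C for 14 days, then sprayed on stems and leaves with water-diluted emulsion formulation at set rates in g/ha. Weed control and crop injury were scored 3 weeks after treatment on a 0-5 herbicidal-ratio scale, from 0 (≤5%) to 5 (≥90%).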

[2] = system: transplanted Oryza sativa; assay: Test Example 1: effect on crop, application before weed generation in submerged conditions; details: Seventeenth Table; for a: transplanted Oryza sativa (effect on crop grade): Application herbicide amount 320 g/ha
Summary of the method: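 Pre-emergence application to water surface of submerged pots (4 cm depth, alluvial soil) on sowing day, with 2.5-leaf rice transplanted; emulsion diluted to g/ha rates. Grown in greenhouse at 25–30 °C; 0–5 herbicidal/crop-effect score after three weeks.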

[3] = system: Brassica campestris L.; assay: Test Example 4: effect on crop by application to foliage (diluvial soil, plastic box); details: application to foliage; for effect on crop, g (Brassica campestris L.): 320 g/ha; for g: effect on crop, Brassica campestris L.: application herbicide amount 320 g/ha
Summary of the method: as §1

[4] = system: Zea mays; assay: as above; details: application to foliage; for effect on crop, b (Zea mays): 320 g/ha; for c: effect on crop, Zea mays: application herbicide amount 320 g/ha
Summary of the method: as §1

[5] = system: Triticum aestivum; assay: as above; details: application to foliage; for effect on crop, e (Triticum aestivum): 320 g/ha; for e: effect on crop, Triticum aestivum: application herbicide amount 320 g/ha
Summary of the method: as §1

[6] = system: directly sowed Oryza sativa; assay: as above; details: application to foliage; for effect on crop, d (directly sowed Oryza sativa): 320 g/ha; for b: effect on crop, directly sowed Oryza sativa: application herbicide amount 320 g/ha
Summary of the method: as §1

[7] = system: Glycine max; assay: as above; details: application to foliage; for effect on crop, c (Glycine max): 320 g/ha; for d: effect on crop, Glycine max: application herbicide amount 320 g/ha
Summary of the method: as §1

[8] = system: Beta vulgaris ssp. vulgaris; assay: as above; details: application to foliage; for effect on crop, f (Beta vulgaris ssp. vulgaris): 320 g/ha; for f: effect on crop, Beta vulgaris ssp. vulgaris: application herbicide amount 320 g/ha
Summary of the method: as §1

SMILES | herbicidal effect, Q (Galium spurium) [1] | a: transplanted Oryza sativa (effect on crop grade) [2] | effect on crop, g (Brassica campestris L.) [3] | effect on crop, b (Zea mays) [4] | effect on crop, e (Triticum aestivum) [5] | effect on crop, d (directly sowed Oryza sativa) [6] | effect on crop, c (Glycine max) [7] | effect on crop, f (Beta vulgaris ssp. vulgaris) [8] | Q: herbicidal effect on Galium spurium [1] | g: effect on crop, Brassica campestris L. [3] | c: effect on crop, Zea mays [4] | e: effect on crop, Triticum aestivum [5] | b: effect on crop, directly sowed Oryza sativa [6] | d: effect on crop, Glycine max [7] | f: effect on crop, Beta vulgaris ssp. vulgaris [8] | a (transplanted Oryza sativa) effect on crop grade ([2]; application herbicide amount 320 g/ha)
CCCn1nnnc1NC(=O)c1ccc(C(F)(F)F)n2c(C(C)C)nnc12 [2-090] | 4 (Herbicidal ratio of 70% or more and less than 90%) | 4 (Herbicidal ratio of 70% or more and less than 90%) | 4 (Herbicidal ratio of 70% or more and less than 90%) | 3 (Herbicidal ratio of 40% or more and less than 70%) | 3 (Herbicidal ratio of 40% or more and less than 70%) | 3 (Herbicidal ratio of 40% or more and less than 70%) | 1 (Herbicidal ratio of 5% or more and less than 20%) | 5 (Herbicidal ratio of 90% or more (almost completely withered)) |  |  |  |  |  |  |  | 
C#CCN(C)c1nnc2c(C(=O)Nc3nnnn3C)ccc(C(F)(F)F)n12 [2-094] | 3 (Herbicidal ratio of 40% or more and less than 70%) | 4 (Herbicidal ratio of 70% or more and less than 90%) | 4 (Herbicidal ratio of 70% or more and less than 90%) | 3 (Herbicidal ratio of 40% or more and less than 70%) | 1 (Herbicidal ratio of 5% or more and less than 20%) | 4 (Herbicidal ratio of 70% or more and less than 90%) | 1 (Herbicidal ratio of 5% or more and less than 20%) | 5 (Herbicidal ratio of 90% or more (almost completely withered)) |  |  |  |  |  |  |  | 
O=C(Nc1nnco1)c1ccc(C(F)(F)F)n2c(SCc3ccc(Cl)nc3)nnc12 [1-157] |  | 2 (Herbicidal ratio of 20% or more and less than 40%) |  |  |  |  |  |  | 1 (Herbicidal ratio of 5% or more and less than 20%) | 2 (Herbicidal ratio of 20% or more and less than 40%) | 0 (Herbicidal ratio of 5% or less (almost no effect)) | 1 (Herbicidal ratio of 5% or more and less than 20%) | 0 (Herbicidal ratio of 5% or less (almost no effect)) | 3 (Herbicidal ratio of 40% or more and less than 70%) | 4 (Herbicidal ratio of 70% or more and less than 90%) | 
CN(CCC#N)c1nnc2c(C(=O)Nc3nnnn3C)ccc(C(F)(F)F)n12 [2-095] | 4 (Herbicidal ratio of 70% or more and less than 90%) | 5 (Herbicidal ratio of 90% or more (almost completely withered)) | 5 (Herbicidal ratio of 90% or more (almost completely withered)) | 5 (Herbicidal ratio of 90% or more (almost completely withered)) | 3 (Herbicidal ratio of 40% or more and less than 70%) | 5 (Herbicidal ratio of 90% or more (almost completely withered)) | 1 (Herbicidal ratio of 5% or more and less than 20%) | 5 (Herbicidal ratio of 90% or more (almost completely withered)) |  |  |  |  |  |  |  | 
O=C(Nc1nnco1)c1ccc(C(F)(F)F)n2c(SC3CCCC3)nnc12 [1-155] |  | 0 (Herbicidal ratio of 5% or less (almost no effect)) |  |  |  |  |  |  | 0 (Herbicidal ratio of 5% or less (almost no effect)) | 0 (Herbicidal ratio of 5% or less (almost no effect)) | 0 (Herbicidal ratio of 5% or less (almost no effect)) | 0 (Herbicidal ratio of 5% or less (almost no effect)) | 0 (Herbicidal ratio of 5% or less (almost no effect)) | 3 (Herbicidal ratio of 40% or more and less than 70%) | 5 (Herbicidal ratio of 90% or more (almost completely withered)) | 
CC(C)c1nnc2c(C(=O)Nc3nnnn3Cc3ccc(Cl)cc3)ccc(C(F)(F)F)n12 [2-093] | 2 (Herbicidal ratio of 20% or more and less than 40%) | 2 (Herbicidal ratio of 20% or more and less than 40%) | 1 (Herbicidal ratio of 5% or more and less than 20%) | 0 (Herbicidal ratio of 5% or less (almost no effect)) | 1 (Herbicidal ratio of 5% or more and less than 20%) | 3 (Herbicidal ratio of 40% or more and less than 70%) | 0 (Herbicidal ratio of 5% or less (almost no effect)) | 2 (Herbicidal ratio of 20% or more and less than 40%) |  |  |  |  |  |  |  | 
Cc1nnc(NC(=O)c2ccc(C(F)(F)F)n3nc(C(C)C)nc23)o1 [7-001] | 0 (Herbicidal ratio of 5% or less (almost no effect)) |  | 0 (Herbicidal ratio of 5% or less (almost no effect)) | 0 (Herbicidal ratio of 5% or less (almost no effect)) | 0 (Herbicidal ratio of 5% or less (almost no effect)) | 0 (Herbicidal ratio of 5% or less (almost no effect)) | 0 (Herbicidal ratio of 5% or less (almost no effect)) | 0 (Herbicidal ratio of 5% or less (almost no effect)) |  |  |  |  |  |  |  | 0 (Herbicidal ratio of 5% or less (almost no effect))
Cc1nnc(NC(=O)c2ccc(C(F)(F)F)n3c(SC4CCCC4)nnc23)o1 [1-154] |  | 0 (Herbicidal ratio of 5% or less (almost no effect)) |  |  |  |  |  |  | 0 (Herbicidal ratio of 5% or less (almost no effect)) | 0 (Herbicidal ratio of 5% or less (almost no effect)) | 0 (Herbicidal ratio of 5% or less (almost no effect)) | 0 (Herbicidal ratio of 5% or less (almost no effect)) | 0 (Herbicidal ratio of 5% or less (almost no effect)) | 2 (Herbicidal ratio of 20% or more and less than 40%) | 4 (Herbicidal ratio of 70% or more and less than 90%) | 
C=CCn1nnnc1NC(=O)c1ccc(C(F)(F)F)n2c(C(C)C)nnc12 [2-091] | 4 (Herbicidal ratio of 70% or more and less than 90%) | 0 (Herbicidal ratio of 5% or less (almost no effect)) | 5 (Herbicidal ratio of 90% or more (almost completely withered)) | 2 (Herbicidal ratio of 20% or more and less than 40%) | 3 (Herbicidal ratio of 40% or more and less than 70%) | 3 (Herbicidal ratio of 40% or more and less than 70%) | 0 (Herbicidal ratio of 5% or less (almost no effect)) | 5 (Herbicidal ratio of 90% or more (almost completely withered)) |  |  |  |  |  |  |  | 
Cc1nnc(NC(=O)c2ccc(C(F)(F)F)n3c(SCc4ccc(Cl)nc4)nnc23)o1 [1-156] |  | 0 (Herbicidal ratio of 5% or less (almost no effect)) |  |  |  |  |  |  | 1 (Herbicidal ratio of 5% or more and less than 20%) | 0 (Herbicidal ratio of 5% or less (almost no effect)) | 0 (Herbicidal ratio of 5% or less (almost no effect)) | 1 (Herbicidal ratio of 5% or more and less than 20%) | 0 (Herbicidal ratio of 5% or less (almost no effect)) | 3 (Herbicidal ratio of 40% or more and less than 70%) | 3 (Herbicidal ratio of 40% or more and less than 70%) | 
